Experimental data: the supplement of paper PMC10307832

Key:
Assay in all cases: relative viability (nuclei count vs DMSO), 5 days (fraction); higher = more cells survive
Ruxolitinib + Foretinib = compound: N#CC[C@H](C1CCCC1)n1cc(-c2ncnc3[nH]ccc23)cn1 [Ruxolitinib] + COc1cc2c(Oc3ccc(NC(=O)C4(C(=O)Nc5ccc(F)cc5)CC4)cc3F)ccnc2cc1OCCCN1CCOCC1 [Foretinib] (partner 0.25 µM)
Method in brief: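 Lung cancer cell lines in 1536-well plates got either a single drug or a fixed anchor-drug dose together with five library-drug doses (not always all listed) in √10 steps, by pin tool, on the day after seeding. Nuclei were counted after 5 days, and relative viability is the treated-to-vehicle ratio of nuclei counts. Values are medians of duplicate plates.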

Vismodegib = compound: CS(=O)(=O)c1ccc(C(=O)Nc2ccc(Cl)c(-c3ccccn3)c2)c(Cl)c1 [Vismodegib]
Method in brief: (§1)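 MetaXpress counted nuclei in 4× images of lung cancer cell lines that had been fixed, permeabilised and Hoechst-stained in one step. Before that, cells in 1536-well plates were kept overnight at 37 °C, pinned with five √10-spaced library-drug doses on vehicle-anchored plates, and cultured 5 days without medium change. Viability takes treated-well nuclei over vehicle-well nuclei and uses the median across plates. Plates were accepted only at control CV below 25% and at least one doubling.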

Ruxolitinib = compound: N#CC[C@H](C1CCCC1)n1cc(-c2ncnc3[nH]ccc23)cn1 [Ruxolitinib]
Method in brief: as §1

VE-821 = compound: CS(=O)(=O)c1ccc(-c2cnc(N)c(C(=O)Nc3ccccc3)n2)cc1 [VE-821]
Method in brief: as §1

Cell Line	relative viability (Ruxolitinib + Foretinib; first compound 0.08 µM)	relative viability (Ruxolitinib + Foretinib; first compound 0.253 µM)	relative viability (Ruxolitinib + Foretinib; first compound 0.8 µM)	relative viability (Ruxolitinib + Foretinib; first compound 2.53 µM)	relative viability (Ruxolitinib + Foretinib; first compound 8 µM)	relative viability (Vismodegib; 0.08 µM)	relative viability (Vismodegib; 0.253 µM)	relative viability (Vismodegib; 0.8 µM)	relative viability (Vismodegib; 2.53 µM)	relative viability (Vismodegib; 8 µM)	relative viability (Ruxolitinib; 0.08 µM)	relative viability (Ruxolitinib; 0.253 µM)	relative viability (Ruxolitinib; 0.8 µM)	relative viability (Ruxolitinib; 2.53 µM)	relative viability (Ruxolitinib; 8 µM)	relative viability (VE-821; 0.08 µM)	relative viability (VE-821; 0.253 µM)	relative viability (VE-821; 0.8 µM)	relative viability (VE-821; 2.53 µM)	relative viability (VE-821; 8 µM)
NCI-H1755	0.946	0.892	0.91	0.852	0.755	0.983	0.982	1.01	1	0.982	0.974	0.989	1.03	0.916	0.825	1.04	0.966	0.905	0.957	0.873
ChaGo-K-1	0.956	0.934	0.898	0.772	0.823	0.932	1	1.03	0.959	0.97	1.04	0.928	0.947	0.872	0.735	1.03	0.882	1	0.967	0.738
NCI-H2342	1.07	0.936	1.17	1.07	1.11	0.882	1.07	0.984	0.742	0.931	0.981	0.827	1.09	1.02	0.964	1	0.957	0.939	0.998	0.807
NCI-H2023	0.682	0.897	0.947	0.978	1.32	0.925	0.892	0.95	1.06	0.98	1.03	0.835	1.18	0.9	0.988	1.1	0.874	0.672	0.494	0.172
Calu-6	0.936	0.884	0.99	0.81	0.523	1.03	0.957	1.03	1.01	1.05	1.03	1.03	1.12	0.893	0.67	1.13	0.97	0.905	0.937	0.607
EKVX	0.234	0.698	0.768	0.795	0.311	0.797	0.945	0.944	0.968	0.941	0.753	0.836	1	0.898	0.742	1.12	0.997	0.937	1.08	0.855
LCLC-97TM1	0.848	0.753	0.826	0.834	0.889	1	0.984	0.904	0.802	0.979	0.895	0.852	0.826	0.892	0.949	1	0.964	0.969	1.13	0.703
NCI-H2085	1.03	0.984	1.13	0.797	0.732	0.977	0.995	0.994	0.997	0.937	1.03	1.01	1.09	0.901	0.876	1.03	0.973	0.843	1.14	0.946
BEN	0.773	0.634	0.729	0.62	0.612	1	1.02	0.891	0.926	1.02	0.992	0.938	1.14	0.965	1.07	0.977	1.01	0.849	1.03	0.885
NCI-H1703	0.298	0.338	0.376	0.329	0.287	0.998	0.826	1.21	0.824	1.33	0.994	0.862	0.978	0.498	0.663	1.09	0.793	0.836	0.689	0.444
HARA	0.882	0.851	1.05	0.879	0.806	1	0.883	0.883	0.971	0.954	0.936	1.01	1.03	0.935	0.88	1.09	0.747	0.954	1.12	0.812
PC-14	–	0.947	0.971	0.875	0.828	0.958	0.959	0.988	0.915	0.952	–	1.07	1.01	0.865	0.8	1.06	0.932	0.995	0.969	0.686
SW 1573	0.979	0.916	1.1	0.834	0.885	0.969	0.931	1.05	0.959	0.985	1.02	0.929	1.14	0.865	0.85	1.1	1.04	1.02	1.06	0.788
NCI-H1563	0.994	0.976	0.997	0.852	0.94	0.944	0.931	0.954	1.04	1.02	0.985	0.99	1.02	0.853	0.879	1.01	0.985	0.81	0.886	0.762
NCI-H1355	0.85	0.967	1.12	0.87	0.893	0.947	0.992	0.904	0.99	0.93	1.07	0.962	0.957	0.922	0.918	1.05	0.919	0.963	1.04	0.604
NCI-H460	1.02	0.999	1.1	0.917	0.843	1.01	0.979	1	0.981	1.03	1.03	1.06	1.07	1	0.96	1.05	0.983	0.947	0.82	0.56
NCI-H2126	1.09	1.27	1.2	1.12	1.16	0.994	0.962	0.949	0.968	0.927	1	1.02	1.09	1.12	0.986	1.02	0.924	0.966	0.96	0.729

Cell Line	relative viability (Ruxolitinib + Foretinib; first compound 0.08 µM)	relative viability (Ruxolitinib + Foretinib; first compound 0.253 µM)	relative viability (Ruxolitinib + Foretinib; first compound 0.8 µM)	relative viability (Ruxolitinib + Foretinib; first compound 2.53 µM)	relative viability (Ruxolitinib + Foretinib; first compound 8 µM)	relative viability (Vismodegib; 0.08 µM)	relative viability (Vismodegib; 0.253 µM)	relative viability (Vismodegib; 0.8 µM)	relative viability (Vismodegib; 2.53 µM)	relative viability (Vismodegib; 8 µM)	relative viability (Ruxolitinib; 0.08 µM)	relative viability (Ruxolitinib; 0.253 µM)	relative viability (Ruxolitinib; 0.8 µM)	relative viability (Ruxolitinib; 2.53 µM)	relative viability (Ruxolitinib; 8 µM)	relative viability (VE-821; 0.08 µM)	relative viability (VE-821; 0.253 µM)	relative viability (VE-821; 0.8 µM)	relative viability (VE-821; 2.53 µM)	relative viability (VE-821; 8 µM)
LCLC-103H	0.808	0.672	0.881	0.71	0.661	0.967	1.04	0.92	1.01	1.02	1.04	1.01	0.993	1.05	0.956	1.07	0.915	0.952	1.21	0.891
NCI-H1623	0.908	0.94	0.971	1.01	0.994	0.943	1.01	1.06	0.978	1.01	0.942	0.936	1.14	1.14	1.28	1.06	0.987	0.84	1.01	0.809
COR-L 105	0.927	1.17	0.994	0.718	0.853	0.968	0.817	0.959	0.961	0.96	0.76	0.863	0.914	0.824	0.695	0.782	0.811	0.776	0.794	0.574
H3255	0.747	0.91	0.968	0.95	0.836	0.921	0.921	0.951	0.936	0.962	0.73	0.938	1.09	0.969	0.811	0.987	0.961	0.92	1.06	0.944
NCI-H441	1.07	0.915	0.997	0.787	0.855	1.02	0.909	1.01	0.98	1.04	0.946	0.933	1.16	0.962	0.699	1.16	1.1	1.34	1.34	0.793
NCI-H2347	–	0.84	0.856	0.769	1.06	0.908	0.995	0.949	0.968	1.04	0.949	0.984	1.11	1.01	0.942	1.1	0.968	1.01	1.22	1.14
CAL-12T	1.19	1.15	1.17	0.899	0.777	1.01	0.955	0.976	0.945	0.959	0.918	0.997	1.11	0.792	0.696	1.02	0.947	1.04	0.927	0.844
HCC-827	–	0.764	0.755	0.918	0.811	1.04	1.01	1.04	1.03	1.03	–	1.01	0.891	0.859	0.901	1.06	1.02	1.1	1.06	1.04
NCI-H520	0.703	–	0.853	0.753	0.885	0.922	0.885	0.927	0.875	1.11	1.07	0.749	1.2	0.934	0.951	1.05	0.992	0.723	1.06	0.67
IA-LM	1.04	1.19	1.34	1.22	0.885	0.883	0.963	0.964	0.85	0.876	0.855	1.02	1.08	1.05	0.888	1.02	0.874	0.999	1.06	0.808
A-427	0.992	1.1	1.06	0.918	0.988	1	0.94	0.933	0.988	1.01	0.982	1.02	1.12	0.902	0.844	1.1	0.878	0.992	0.986	0.468
NCI-H650	–	1	1.14	0.917	0.678	0.953	0.895	0.88	0.915	0.815	–	0.937	1.01	0.854	0.696	1.04	0.909	1.05	1.1	0.895
SW 900	0.88	0.806	1.01	0.912	1.11	0.982	0.879	0.737	0.655	0.93	0.991	1.02	1.03	1.02	0.896	1.01	0.793	0.763	0.748	0.537
NCI-H727	1.21	0.976	1.3	0.873	1.03	0.891	0.931	0.804	0.988	0.81	0.934	1.02	1.11	0.904	1.36	0.894	0.884	0.958	0.911	0.446
ABC-1	–	1.35	1.33	0.975	0.99	0.963	0.854	0.96	0.81	0.988	–	1.01	1.11	0.882	0.782	1.09	0.882	0.907	1.03	0.749
NCI-H1793	0.604	0.668	0.959	0.761	0.54	–	0.857	0.96	0.904	0.784	0.972	0.928	1.12	0.946	0.699	0.996	0.744	0.747	1.16	0.713
